Key:
Type in all cases: cell-based, human
[1] = test system: U-118 Glioblastoma cell line; assay: DIMSCAN cytotoxicity, fenretinide + L-threo-sphinganines 3:1 (Example B5); set-up: key to CI (Combination Index): CI<0.9 synergy, 0.9-1.1 additive, >1.1 antagonistic; details: U-118 MG, 96 h
Experimental: (§1) Cytotoxicity Assay—Once again, cytotoxicity is determined using the DIMSCAN assay system (R. Proffitt et al., Cytometry 24, 204-213 (1996); T. Frgala et al., Mol Cancer Ther. 6:886-97, 2007). The system employs digital imaging microscopy to quantify viable cells, which selectively accumulate fluorescein diacetate to become brightly fluorescent. The system is capable of measuring cytotoxicity over a 4-5 log dynamic range by quenching the residual fluorescence of dead and dying cells with eosin Y and quantifying the total fluorescence of viable cells using digital thresholding. Measured fluorescence is directly proportionate to the number of viable cells. A comparison of the total fluorescence of a drug-treated cell population to the fluorescence of a similar number of untreated cells yields a survival fraction. In brief, 2000 to 10,000 cells/well (depending on size and growth rates) are replicate plated into 60 wells of a 96-well tissue culture plate in 0.1 mL of whole medium and allowed to attach overnight. Drug(s) are then added in 0.05 mL of whole medium to the final concentrations indicated. Drugs (fenretinide, and various chain length L-threo-sphinganines) were tested both as single agents and in a 3:1 ratio of fenretinide:sphinganine. C18-L-threo-sphinganine, or “safingol,” was also tested and results shown for reference. There are 12 wells treated per drug concentration. Twelve wells receive drug vehicle-only to the appropriate final concentration and serve as controls for the plate. Cells are incubated for 96 hours at 37° C. in ambient air with 5% CO2. Fluorescein diacetate is then added to each well in 0.05 mL media to a final concentration of 8 microgram/mL. Cells are incubated for a further 15 minutes at 37° C. and 0.03 mL of 0.5% eosin Y is added to each well. Total fluorescence of viable cells is then measured by digital imaging microscopy. Results were graphed as the ratio of the fluoresecence of drug-treated wells to non-drug treated control wells (i.e., Survival Fraction). All tests were performed at least twice. Representative results are shown.
(§2) The Combination Index (CI) is a term to describe mathematical modeling of the pharmacologic effects on cytotoxicity (cell death) of two drugs in combination based. Cytotoxic “synergy” is defined as a cell death affect which is greater than would be expected from a simple product of the single agent cytotoxicities alone (i.e. an “additive” effect). By Chou-Talalay analysis, a CI<0.9 on a Fraction Affected (“Fa”, i.e. fraction of cells killed) indicates synergy, with smaller numbers indicating greater synergy; a CI of 0.9-1.1 signifies an additive or near-additive effect; and a CI>1.1 means the drug combination is antagonistic.
Fenretinide and L-threo-sphinganines tested in human Glioblastoma (brain cancer) cell line, U-118.

[2] = test system: A-2058 melanoma cell line; assay: DIMSCAN cytotoxicity, fenretinide + L-threo-sphinganines 3:1 (Example B11); details: 96 h
Experimental: as §1, §2
Fenretinide and L-threo-sphinganines tested in human melanoma (skin cancer) cell line, A-2058.

[3] = test system: U-266 Multiple Myeloma cell line; assay: DIMSCAN cytotoxicity, fenretinide + L-threo-sphinganines 3:1 (Example B3); details: 96 h
Experimental: as §1, §2
Fenretinide and L-threo-sphinganines tested in human Multiple Myeloma (a cancer of the blood and bone marrow) cell line, U-266.

[4] = test system: SJ-GBM2 Glioblastoma multiforme cell line; assay: DIMSCAN cytotoxicity, fenretinide + L-threo-sphinganines 3:1 (Example B7); set-up: key to CI (Combination Index): Chou-Talalay CI: <0.9 synergy, 0.9-1.1 additive, >1.1 antagonism; details: 96 h
Experimental: as §1, §2
Fenretinide and L-threo-sphinganines tested in human Glioblastoma multiforme (brain cancer) cell line, SJ-GBM2.

[5] = test system: PANC-1 pancreatic adenocarcinoma cell line; assay: DIMSCAN cytotoxicity, fenretinide + L-threo-sphinganines 3:1 (Example B18)
Experimental: as §1, §2
Fenretinide and L-threo-sphinganines tested in human pancreatic adenocarcinoma (pancreas cancer) cell line, PANC-1.

[6] = test system: RPMI-8226 Multiple Myeloma cell line; assay: DIMSCAN cytotoxicity, fenretinide + L-threo-sphinganines 3:1 (Example B2); details: 96 h
Experimental: as §1, §2
Fenretinide and L-threo-sphinganines tested in human Multiple Myeloma (a cancer of the blood and bone marrow) cell line, RPMI-8226.

[7] = test system: A-549 lung adenocarcinoma cell line; assay: DIMSCAN cytotoxicity, fenretinide + L-threo-sphinganines 3:1 (Example B13); details: 96 h
Experimental: as §1, §2
Fenretinide and L-threo-sphinganines tested in human lung adenocarcinoma (lung cancer) cell line, A-549.

[8] = test system: PC-3 prostate adenocarcinoma cell line; assay: DIMSCAN cytotoxicity, fenretinide + L-threo-sphinganines 3:1 (Example B17)
Experimental: as §1, §2
Fenretinide and L-threo-sphinganines tested in human prostate adenocarcinoma (prostate cancer) cell line, PC-3.

[9] = 4-HPR 1.5 μM + L-threo-sphinganine 0.5 μM
[10] = 4-HPR 3 μM + L-threo-sphinganine 1 μM
[11] = 4-HPR 6 μM + L-threo-sphinganine 2 μM
[12] = 4-HPR 9 μM + L-threo-sphinganine 3 μM

CCCCCCCCC[C@H](O)[C@@H](N)CO [C12]
CI (Combination Index) [1, 9]: 1.5
Fa (fraction affected) [1, 9]: 0.226
CI (Combination Index) [1, 10]: 1.0
Fa (fraction affected) [1, 10]: 0.671
CI (Combination Index) [1, 11]: 0.3
Fa (fraction affected) [1, 11]: 0.988
CI (Combination Index) [1, 12]: 0.2
Fa (fraction affected) [1, 12]: 0.996
CI (Combination Index) [2, 9]: 0.3
Fa (fraction affected) [2, 9]: 0.244
CI (Combination Index) [2, 10]: 0.6
Fa (fraction affected) [2, 10]: 0.247
CI (Combination Index) [2, 11]: 0.9
Fa (fraction affected) [2, 11]: 0.518
CI (Combination Index) [2, 12]: 1.0
Fa (fraction affected) [2, 12]: 0.854
CI (Combination Index) [3, 9]: 0.8
Fa (fraction affected) [3, 9]: 0.176
CI (Combination Index) [3, 10]: 0.9
Fa (fraction affected) [3, 10]: 0.326
CI (Combination Index) [3, 11]: 0.9
Fa (fraction affected) [3, 11]: 0.697
CI (Combination Index) [3, 12]: 1.2
Fa (fraction affected) [3, 12]: 0.748
CI (Combination Index) [4, 9]: 0.5
Fa (fraction affected) [4, 9]: 0.133
CI (Combination Index) [4, 10]: 0.7
Fa (fraction affected) [4, 10]: 0.271
CI (Combination Index) [4, 11]: 0.7
Fa (fraction affected) [4, 11]: 0.930
CI (Combination Index) [4, 12]: 0.9
Fa (fraction affected) [4, 12]: 0.968
CI [5, 9]: 0.9
Fa [5, 9]: 0.232
CI [5, 10]: 3.1
Fa [5, 10]: 0.119
CI [5, 11]: 0.7
Fa [5, 11]: 0.757
CI [5, 12]: 0.2
Fa [5, 12]: 0.977
CI (Combination Index) [6, 9]: 0.8
Fa (fraction affected) [6, 9]: 0.6
CI (Combination Index) [6, 10]: 1.0
Fa (fraction affected) [6, 10]: 0.757
CI (Combination Index) [6, 11]: 0.7
Fa (fraction affected) [6, 11]: 0.96
CI (Combination Index) [6, 12]: 0.5
Fa (fraction affected) [6, 12]: 0.988
CI (Combination Index) [7, 9]: 2.5
Fa (fraction affected) [7, 9]: 0.01
CI (Combination Index) [7, 10]: 1.0
Fa (fraction affected) [7, 10]: 0.010
CI (Combination Index) [7, 11]: 1.0
Fa (fraction affected) [7, 11]: 0.010
CI (Combination Index) [7, 12]: 1.0
Fa (fraction affected) [7, 12]: 0.020
CI [8, 9]: 0.5
Fa [8, 9]: 0.245
CI [8, 10]: 0.8
Fa [8, 10]: 0.328
CI [8, 11]: 0.9
Fa [8, 11]: 0.526
CI [8, 12]: 0.8
Fa [8, 12]: 0.721

Source: patent US20110152267A1, “Compositions and Methods for Treating Hyperproliferative Disorders” (Texas Tech University System, priority 2009, published 2011)
